Laboratory results from patent publication US11311576B2, “Methods of use for CAR T cells” (Seattle Children's Hospital, priority 2018, dated 2022).

How the values were obtained:
THP1-FRb = test: CAR-T cell activation markers (CD69, CD137, PD1) after 24 h co-culture with EC17-preloaded targets; format: cell-based, human; details: targets preloaded with 100 nM EC17 30 min, E/T 1:1, 24 hours
Method: (§1) To study CAR-T cell activation in the presence of FR+ tumor cell targets (FIG. 53), co-culture experiments were initially carried out with MDA-MB-231, THP1-FRβ and HOS-FRα. […] After 24 hours of co-culture, the surface expression of T cell activation markers CD69, CD137 (4-1BB), and PD1 were analyzed by flow cytometry. For T cell exhaustion studies (FIG. 54), FR+(KB, MDA-MB-231, HOS-FRα^fLuc, THP1-FRβ) and FR-negative (HOS-143b^fLuc, THP1-FG12) tumor cell lines were used as targets. Here, target cells were incubated on day 0 without or with 0.1 and 10 nM of EC17 for 30 min at 37° C. and the status of EC17 “pre-loading” was assessed by counterstaining cell-surface EC17 with an anti-FITC antibody (FIG. 61A). Three days later, the surface expression of PD1, LAG3, and TIM3 inhibitor receptors on co-cultured CAR-T cells were analyzed and higher frequencies of double- and triple-positive cells were considered approaching an exhausted phenotype.
(§2) To examine antigen-dependent CAR-T cell activation, MDA-MB-231, THP1-FRβ and HOS-FRα cells were preloaded with 100 nM EC17 over 30 min. […] After 24 hours of co-culture, we measured the surface expression of T cell activation markers CD69, CD137 (4-1BB) and PD1 (FIG. 53). […] Importantly, the mock controls T cells were not activated under these conditions. Some FR+ tumor types (e.g. KB) display a natural resistance to killing by EC17-directed CAR T cells (FIGS. 56, 58, 59, and 60), we studied T cell activation versus exhaustion as a mechanism of EC17 CAM action. Both FR+(KB, MDA-MB-231, HOS-FRα^fLuc, THP1-FRβ) and FR-negative (HOS-143b^fLuc, THP1-FG12) tumor cell lines were chosen for this purpose. HOS-FRα^fLuc expressed ˜5.6× lower level of functional FR than its parent HOS-FRα, and HOS-143b^fLuc was FR-negative similar to HOS-143b (FIG. 59A). […] Three days later, co-cultured CAR-T cells were measured for upregulation and co-expression of T cell activation/exhaustion markers PD1, LAG3 and TIM3. […]

MDA-MB-231 = test: as above; format: cell-based, human; details: targets preloaded with 100 nM EC17 30 min, E/T 1:1, 24 hours
Method: as §1, §2

HOS-FRα = test: as above; format: cell-based, human; details: targets preloaded with 100 nM EC17 30 min, E/T 1:1, 24 hours
Method: as §1, §2

MDA-MB-231 tumor = test: Kinetics of CAR-T cell expansion and tumor uptake in MDA-MB-231 tumor bearing mice; format: in vivo, NSG mice
Method: When the tumor sizes averaged at ˜350±60 mm^3 on day 2, up to […] of EC17 at 500 nmol/kg were given on days 2, 9, 16, 23, and 30. For ex-vivo analysis, 3 animals were taken before the next EC17 dose on days 9, 16, 23, and 30 for a total of 4 collections. For comparison, the same EC17 dose was given to 3 CAR-T mice that had ˜4.4× larger tumor sizes on day 2 (˜1555±79 mm3). For each collection, fresh blood and tumor samples (if available) were analyzed for the presence of human CD3e+ EGFRt+ CAR-T cells by flow cytometry.
For CAR-T cell analysis in the circulation, plasma was removed from a predetermined volume of whole blood collected into tubes containing ethylenediaminetetraacetic acid anticoagulant. […] A minimum of 20,000 propidium iodide negative live cell events were collected on the Gallios flow cytometer and analyzed with the Kaluza software, version 2.1 (Beckman Coulter, Brea, Calif.). CAR-positive T cells were identified in mouse blood as human CD3e+ EGFRt+ events and absolute numbers per volume of blood were calculated using equal numbers of CountBright™ beads (Invitrogen, Carlsbad, Calif.) added to each sample. The number of tumor-infiltrating CD3ε+ EGFRt+ CAR-T cells was expressed as % total viable tumor cells analyzed.

FRβ (CHO-b) = target: T1, FRβ (CHO-b) (Homo sapiens, UniProt P14207); test: 3H-EC17 cell-based radioligand binding assay, CHO-β cells; details: 2 h at 37° C.
T1 construct: expressed in transfected cells; host or cells: CHO (Chinese hamster ovary) cells
Method: The bispecific affinities of EC17 CAM were assessed using ^3H-EC17 in cell-based radioligand binding assays. For binding to FR+ targets, KB and CHO-β cells were pre-seeded overnight in 24-well tissue culture plates and incubated with 0.1, 0.5, 1, 5, 10, 20, and 40 nM of ^3H-EC17 in FFRPMI for 2 h at 37° C. Afterwards, the cells were rinsed with phosphate-buffered saline (PBS, pH 7.4) and lysed with 1% sodium dodecylsulfate. The whole cell lysates were quantitated for the level of radioactivity and cellular protein content by standard Pierce BCA protein assay. The number of ^3H-EC17 molecules bound per cell was calculated to determine the dissociation constants (Kd) for FRα (KB) and FRβ (CHO-b) respectively (FIG. 56A, FIG. 56B).

T1 sequence (P14207 17-230): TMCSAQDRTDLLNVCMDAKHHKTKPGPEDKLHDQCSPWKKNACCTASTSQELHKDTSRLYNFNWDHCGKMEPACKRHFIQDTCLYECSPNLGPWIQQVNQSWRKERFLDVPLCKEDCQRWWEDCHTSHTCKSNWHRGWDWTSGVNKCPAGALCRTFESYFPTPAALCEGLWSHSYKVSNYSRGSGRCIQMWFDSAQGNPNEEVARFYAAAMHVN

## NC1=NC2N=CC(CNc3ccc(C(=O)N[C@@H](CCC(=O)NCCNC(=S)Nc4ccc(-c5c6ccc(=O)cc-6oc6cc(O)ccc56)c(C(=O)O)c4)C(=O)O)cc3)=NC2C(=O)N1 (stereo partly drawn) [EC17, FA-(g)-ethylenediamine-FITC]
THP1-FRb
  CAR-T cell activation (CD69, CD137, PD1): did trigger CAR-T cell activation, but at lower levels
MDA-MB-231
  CAR-T cell activation (CD69, CD137, PD1): strong activators of our CAR-T cells
HOS-FRα
  CAR-T cell activation (CD69, CD137, PD1): strong activators of our CAR-T cells
MDA-MB-231 tumor; ~4.8 million E2-CAR-T cells, after EC17 administration, especially third dose
  body weight loss: mild body weight loss
MDA-MB-231 tumor; ~4.8 million EGFRt-sorted E2-CAR-T cells, weekly EC17 500 nmol/kg
  tumor response: started to respond after the second EC17 dose
FRβ (CHO-b)
  Kd: 0.8 nM
